According to patent US20220347071A1, “USE OF CANNABINOIDS IN THE TREATMENT OF ORAL INFLAMMATION AND PERIODONTAL DISEASE” (priority 2021, published 2022):
Entries after “also recorded” stand apart in the source; their conditions may differ.

Tests used:
IL-8 = IL-8 release by PMA-stimulated NHEK (ELISA); type: cell-based, human; conditions: for Effect on IL-8 release (in words): PMA-stimulated keratinocytes; for IL-8 release, % Relative inhibition: NHEK, PMA 0.5 μg/ml, 24 h
Protocol: (§1) The effects on normal human epidermal keratinocytes (NHEK) were measured by assessing IL-8 and PGE2 release by PMA-stimulated NHEK using specific ELISA kits.
(§2) Normal human epidermal keratinocytes (NHEK): • Cell type: NHEK • Culture conditions: 37° C., 5% CO2 • Culture medium: Keratinocyte SFM supplemented with Epidermal Growth Factor (EGF) 0.25 ng/ml • Pituitary extract (PE) 25 μg/ml • Gentamycin 25 μg/ml • Assay medium 1: Epilife® medium supplemented with PE 0.2% • Bovine transferrin 5 μg/ml • EGF 0.2 ng/ml • Insulin 5 μg/ml • Gentamycin/Amphotericin • Assay medium 2: Keratinocyte SFM supplemented with Gentamycin 25 μg/ml
(§3) Keratinocytes were seeded in 96-well plates and cultured for 24 hours in culture medium. […] After pre-incubation, the medium was removed and replacedby assay medium 1 containing or not (stimulated control) the compounds or the reference compound and containing the inducer (PMA tested at 0.5 μg/ml). The cells were then incubated for 24 hours. In parallel, a non-stimulated control condition was performed.
(§4) All experimental conditions were performed in n=3. At the end of incubation, the culture supernatants were collected for IL-8 and PGE2 quantifications.
(§5) IL-8 and PGE2 released in the culture supernatants were measured using specific ELISA kits according to the supplier's instructions.

PGE2 = PGE2 release by PMA-stimulated NHEK (ELISA); type: cell-based, human; conditions: for PGE2 release, % of the control: highest tested concentration; for PGE2 release, % of the control / Effect on PGE2 release (in words) / PGE2 release, % of relative inhibition: PMA-stimulated keratinocytes; for PGE2 release, % of relative inhibition: concentration not given; for PGE2 release, % Relative inhibition: NHEK, PMA 0.5 μg/ml, 24 h
Protocol: as §1, §2, §3, §4, §5

C=C(C)[C@@H]1CCC(C)=C[C@H]1c1c(O)cc(CCCCC)cc1O [CBD, cannabidiol, reference compound]
Effect on IL-8 release (in words) (IL-8; tested at 0.3 μM): overstimulated IL-8 release
PGE2 release, % of the control (PGE2): 185%

CCCCCc1cc(O)c(C/C=C(\C)CCC=C(C)C)c(O)c1 [CBG, cannabigerol]
Effect on IL-8 release (in words) (IL-8; concentration not given): significantly inhibited
Effect on IL-8 release (in words) (IL-8; tested at 3 (unit not given)): strongly inhibited
Effect on PGE2 release (in words) (PGE2): significant at all tested concentrations; also recorded: significantly inhibited
PGE2 release, % of relative inhibition (PGE2): about 160%

O=C1O[C@H]([C@@H](O)CO)C(O)=C1O [L-Ascorbic acid, reference compound]
Effect on PGE2 release (in words) (PGE2): overall the same effect at all tested concentrations; also recorded: significantly limited
PGE2 release, % of relative inhibition (PGE2): ~145%

COc1ccc2c(c1)c(CC(=O)O)c(C)n2C(=O)c1ccc(Cl)cc1 [Indomethacin, indomethacin, reference compound]
PGE2 release, % Relative inhibition (PGE2; 1 μM): >169%

CCCCCc1cc(O)c(C/C=C(\C)CCC=C(C)C)c(O)c1C(=O)O [CBGA, cannabigerolic acid, reference compound]
PGE2 release, % of the control (PGE2): 182%

CCCc1cc(O)c(C/C=C(\C)CCC=C(C)C)c(O)c1C(=O)O [CBGVA, cannabigerovarinic acid]
IL-8 release, % Relative inhibition (IL-8; 0.1 μM): 2%
IL-8 release, % Relative inhibition (IL-8; 0.3 μM): 11%
IL-8 release, % Relative inhibition (IL-8; 1 μM): 9%
PGE2 release, % Relative inhibition (PGE2; 0.1 μM): 19%
PGE2 release, % Relative inhibition (PGE2; 0.3 μM): 65%
PGE2 release, % Relative inhibition (PGE2; 1 μM): >162%
Effect on PGE2 release (in words) (PGE2): significant effect only when tested at the highest concentration; also recorded: inhibited
PGE2 release, % of relative inhibition (PGE2): about 160%

C=C(C)[C@@H]1CCC(C)=C[C@H]1c1c(O)cc(CCCCC)c(C(=O)O)c1O [CBDA, cannabidiolic acid, reference compound]
Effect on PGE2 release (in words) (PGE2): did not modulate
